The record followed here is US20250041577A1, “SHORT-PULSE SONODYNAMIC TREATMENT APPARATUS” (Insightec, Ltd., priority 2021, published 2025).

Data set [1] is described as follows: Plasma and blood pharmacokinetics of 5-ALA and PPIX after IV SONALA-001 (LC-MS/MS). The note with it: human, plasma; 10 mg/kg IV Sonala-001; recurrent GBM patients; read-out: median Cmax for 5-ALA in plasma. The class given is in vivo. The procedure:
Six hours prior to MRgFUS, adult patients with recurrent GBM are administered SONALA-001 (10 mg/kg), an investigational IV formulation of […]. Oral […] is an FDA- and […] agent used in fluorescence-guided surgery to visualize glioma infiltration and maximize extent of resection. LCMS/MS methods were developed to determine the levels of […] and PPIX in plasma and blood following IV administration of SONALA-001. Samples were analyzed using SCIEX ExionLC UHPLC system and the detection was performed on SCIEX QTRAP 6500+ mass spectrometer by multiple reaction monitoring mode to monitor the precursor-to-product ion transitions in positive electrospray ionization mode.

A short description of data set [2]: Drug and device safety of 5-ALA SDT in recurrent GBM patients (Phase 0/1). In kind it is in vivo, human. The note with it: three adult recurrent GBM patients. The procedure:
Six hours prior to MRgFUS, adult patients with recurrent GBM are administered SONALA-001 (10 mg/kg), an investigational IV formulation of […]. Oral […] is an FDA- and […] agent used in fluorescence-guided surgery to visualize glioma infiltration and maximize extent of resection. The […] Model 4000 Type-2 system is an investigational MRgFUS with a 1000-element transducer utilizing real-time MR imaging during treatment delivery. It includes the same monitoring capabilities as the ablative, FDA-approved Type-1 system for essential tremor and tremor-dominant Parkinson's Disease. However, the Type-2 device can target a large range of brain anatomy and operates at relatively low ultrasound frequencies and intensities, preventing tissue heating when inducing sonoluminescence. Intra-procedural MR thermometry automatically triggers an auto-stop if any tissue approaches ablative temperatures. […] Patients must have completed standard-of-care chemotherapy and radiotherapy prior to radiographic recurrence. In a Dose-Escalation Arm, 9-18 patients are assigned to one of three ascending acoustic energy doses of […], measured at transducer surface), followed by a four-day interval until tumor resection. In each patient, half the tumor volume, including Gadolinium-enhancing and non-enhancing tumor, is targeted with MRgFUS and the other half serves as an internal control. […]

For data set [3] the following is noted: human, in vivo. The text has this:
Performed similarly to Example 1 with same study drug but for Diffuse Intrinsic Pontine Glioma (DIPG) and with typically only radiation therapy performed prior.
Performed similarly to Example 1 but with an increase in the number of subspots per sonication (32 subspots). Targets were overlapped with a 2.0-3.0 mm spot to spot separation and Duty Cycle within 4-32% throughout the study. Pulse duration ranged from 0.0002 to 0.002 second.
Similar to Example 1, this multi-center, non-randomized, open label, first-in-pediatric Phase 1/2 study is a drug dose (5, 10, or 15 mg/kg SONALA-001) and focused ultrasound energy (200J, 400J, or 800J) escalation study containing 18-24 subjects, 9 cohorts of approximately 3 patients each. These pediatric patients with DIPG must have completed standard-of-care radiotherapy prior to radiographic treatment. No resection due to location but biopsy can be obtained. In the first patient, half of the Pons volume is targeted with MRgFUS and the other half serves as an internal control for safety. If no DLTs or any grade intracranial hemorrhage and any clinical symptoms (CTCAE, Version 5.0, i.e., intracranial hemorrhage Grades 2-5) are observed, the next patients will receive treatment over the entire pons. The intervention model will be sequential assignment using a Bayesian optimal interval (BOIN) dose escalation method. […]

Where two headings read alike, the source gives them in different places.

For orientation: Cmax means the highest concentration seen after dosing.

As to `NCC(=O)CCC(=O)O` [5-ALA, 5-aminolevulinic acid], the Cmax in data set [1] is 307 µM. The 5-ALA-related photosensitivity entry in data set [2] and in data set [3] was “No patient demonstrated 5-ALA-related photosensitivity” throughout.
